Assay results: US8969516B2, “Method of hydrolysis of peptide bond” (priority 2006, dated 2015)

Experiment: MALDI-TOF screening of Ni^2+ dependent hydrolysis in a combinatorial peptide library
Assay type: physicochemical
Conditions: Ni^2+ 2 mM, pH 8.2, 10 mM Tris, score=24/tm
Summary of the method: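 Sublibraries of Ac-Gly-Ala-Ser/Thr-X-His-Z-Lys-Phe-Leu-NH2, randomized at Z and fixed at X, were hydrolyzed at 1 mM total peptide with 2 mM Ni2+ in 10 mM Tris, pH 8.2, at 37 °C or 45 °C. Cleavage was scored visually in MALDI-TOF spectra at 2, 4, 6 and 8 h.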

[1] = CH3CO-Gly-Ala-Ser-X-His-Z-Lys-Phe-Leu-NH2 library, 37° C.
[2] = CH3CO-Gly-Ala-Ser-X-His-Z-Lys-Phe-Leu-NH2 library, 45° C.
[3] = CH3CO-Gly-Ala-Thr-X-His-Z-Lys-Phe-Leu-NH2 library, 37° C.
[4] = CH3CO-Gly-Ala-Thr-X-His-Z-Lys-Phe-Leu-NH2 library, 45° C.

Row | Substance | hydrolysis score from MALDI-TOF screening [1] | hydrolysis score from MALDI-TOF screening [2] | hydrolysis score from MALDI-TOF screening [3] | hydrolysis score from MALDI-TOF screening [4]
1 | Ac-GASWHLKFL-NH2 [SWHL] | 6 (a score of 6 for detection at 4 hours) | 12 (a score of 12, if it was seen to be partially hydrolysed at 2 hours) |  | 
2 | Ac-GATLHNKFL-NH2 [TLHN] |  |  | 0 (a score of 0 if no trace of the product of hydrolysis was seen after 8 hours of incubation) | 0 (a score of 0 if no trace of the product of hydrolysis was seen after 8 hours of incubation)
3 | Ac-GATIHPKFL-NH2 [TIHP] |  |  | 0 (a score of 0 if no trace of the product of hydrolysis was seen after 8 hours of incubation) | 0 (a score of 0 if no trace of the product of hydrolysis was seen after 8 hours of incubation)
4 | Ac-GASHHDKFL-NH2 [SHHD] | 0 (a score of 0 if no trace of the product of hydrolysis was seen after 8 hours of incubation) | 0 (a score of 0 if no trace of the product of hydrolysis was seen after 8 hours of incubation) |  | 
5 | Ac-GASPHTKFL-NH2 [SPHT] | 0 (a score of 0 if no trace of the product of hydrolysis was seen after 8 hours of incubation) | 0 (a score of 0 if no trace of the product of hydrolysis was seen after 8 hours of incubation) |  | 
6 | Ac-GATLHSKFL-NH2 [TLHS] |  |  | 0 (a score of 0 if no trace of the product of hydrolysis was seen after 8 hours of incubation) | 0 (a score of 0 if no trace of the product of hydrolysis was seen after 8 hours of incubation)
7 | Ac-GASPHAKFL-NH2 [SPHA] | 0 (a score of 0 if no trace of the product of hydrolysis was seen after 8 hours of incubation) | 0 (a score of 0 if no trace of the product of hydrolysis was seen after 8 hours of incubation) |  | 
8 | Ac-GASKHIKFL-NH2 [SKHI] | 6 (a score of 6 for detection at 4 hours) | 12 (a score of 12, if it was seen to be partially hydrolysed at 2 hours) |  | 
9 | Ac-GASMHLKFL-NH2 [SMHL] | 4 (a score of 4 for detection at 6 hours) | 12 (a score of 12, if it was seen to be partially hydrolysed at 2 hours) |  | 
10 | Ac-GASGHQKFL-NH2 [SGHQ] | 0 (a score of 0 if no trace of the product of hydrolysis was seen after 8 hours of incubation) | 0 (a score of 0 if no trace of the product of hydrolysis was seen after 8 hours of incubation) |  | 
11 | Ac-GASRHGKFL-NH2 [SRHG] | 3 (a score of 3 for detection at 8 hours) | 6 (a score of 6 for detection at 4 hours) |  | 
12 | Ac-GATWHQKFL-NH2 [TWHQ] |  |  | 0 (a score of 0 if no trace of the product of hydrolysis was seen after 8 hours of incubation) | 0 (a score of 0 if no trace of the product of hydrolysis was seen after 8 hours of incubation)
13 | Ac-GASHHNKFL-NH2 [SHHN] | 0 (a score of 0 if no trace of the product of hydrolysis was seen after 8 hours of incubation) | 0 (a score of 0 if no trace of the product of hydrolysis was seen after 8 hours of incubation) |  | 
14 | Ac-GASWHVKFL-NH2 [SWHV] | 3 (a score of 3 for detection at 8 hours) | 12 (a score of 12, if it was seen to be partially hydrolysed at 2 hours) |  | 
15 | Ac-GASAHMKFL-NH2 [SAHM] | 0 (a score of 0 if no trace of the product of hydrolysis was seen after 8 hours of incubation) | 0 (a score of 0 if no trace of the product of hydrolysis was seen after 8 hours of incubation) |  | 
16 | Ac-GATRHLKFL-NH2 [TRHL] |  |  | 6 (a score of 6 for detection at 4 hours) | 12 (a score of 12, if it was seen to be partially hydrolysed at 2 hours)
17 | Ac-GASVHDKFL-NH2 [SVHD] | 0 (a score of 0 if no trace of the product of hydrolysis was seen after 8 hours of incubation) | 0 (a score of 0 if no trace of the product of hydrolysis was seen after 8 hours of incubation) |  | 
18 | Ac-GATNHIKFL-NH2 [TNHI] |  |  | 0 (a score of 0 if no trace of the product of hydrolysis was seen after 8 hours of incubation) | 0 (a score of 0 if no trace of the product of hydrolysis was seen after 8 hours of incubation)
19 | Ac-GASLHQKFL-NH2 [SLHQ] | 0 (a score of 0 if no trace of the product of hydrolysis was seen after 8 hours of incubation) | 0 (a score of 0 if no trace of the product of hydrolysis was seen after 8 hours of incubation) |  | 
20 | Ac-GATRHPKFL-NH2 [TRHP] |  |  | 0 (a score of 0 if no trace of the product of hydrolysis was seen after 8 hours of incubation) | 0 (a score of 0 if no trace of the product of hydrolysis was seen after 8 hours of incubation)
21 | Ac-GATWHEKFL-NH2 [TWHE] |  |  | 0 (a score of 0 if no trace of the product of hydrolysis was seen after 8 hours of incubation) | 0 (a score of 0 if no trace of the product of hydrolysis was seen after 8 hours of incubation)
22 | Ac-GATLHHKFL-NH2 [TLHH] |  |  | 0 (a score of 0 if no trace of the product of hydrolysis was seen after 8 hours of incubation) | 0 (a score of 0 if no trace of the product of hydrolysis was seen after 8 hours of incubation)
23 | Ac-GASYHKKFL-NH2 [SYHK] | 4 (a score of 4 for detection at 6 hours) | 6 (a score of 6 for detection at 4 hours) |  | 
24 | Ac-GATGHYKFL-NH2 [TGHY] |  |  | 0 (a score of 0 if no trace of the product of hydrolysis was seen after 8 hours of incubation) | 0 (a score of 0 if no trace of the product of hydrolysis was seen after 8 hours of incubation)
25 | Ac-GATWHRKFL-NH2 [TWHR] |  |  | 3 (a score of 3 for detection at 8 hours) | 4 (a score of 4 for detection at 6 hours)
26 | Ac-GASLHGKFL-NH2 [SLHG] | 0 (a score of 0 if no trace of the product of hydrolysis was seen after 8 hours of incubation) | 0 (a score of 0 if no trace of the product of hydrolysis was seen after 8 hours of incubation) |  | 
27 | Ac-GATYHHKFL-NH2 [TYHH] |  |  | 0 (a score of 0 if no trace of the product of hydrolysis was seen after 8 hours of incubation) | 0 (a score of 0 if no trace of the product of hydrolysis was seen after 8 hours of incubation)
28 | Ac-GATIHDKFL-NH2 [TIHD] |  |  | 0 (a score of 0 if no trace of the product of hydrolysis was seen after 8 hours of incubation) | 0 (a score of 0 if no trace of the product of hydrolysis was seen after 8 hours of incubation)
29 | Ac-GASQHYKFL-NH2 [SQHY] | 3 (a score of 3 for detection at 8 hours) | 4 (a score of 4 for detection at 6 hours) |  | 
